Results from patent publication US9765087B2, “Benzimidazole derivatives” (ENANTA PHARMACEUTICALS, INC., priority 2009, dated 2017).
pEC50: −log10 of the molar value. Read-outs that look alike come from different tables or passages of the source.

Test system: HCV 1b genotype replicon
Experiment: HCV replicon assay (qRT-PCR or luciferase), genotype 1b
Type: cell-based
Conditions: Hepatitis C virus
Excerpt: HCV replicon cell lines (kindly provided by R. Bartenschlager) isolated from colonies as described by Lohman et. al. (Lohman et al. (1999) Science 285: 110-113, expressly incorporated by reference in its entirety) and used for all experiments. The HCV replicon has the nucleic acid sequence set forth in EMBL Accession No.: AJ242651, the coding sequence of which is from nucleotides 1801 to 8406.
The coding sequence of the published HCV replicon was synthesized and subsequently assembled in a modified plasmid pBR322 (Promega, Madison, Wis.) using standard molecular biology techniques. One replicon cell line (“SGR 11-7”) stably expresses HCV replicon RNA which consists of (i) the HCV 5′UTR fused to the first 12 amino acids of the capsid protein, (ii) the neomycin phosphotransferase gene (neo), (iii) the IRES from encephalomyocarditis virus (EMCV), and (iv) HCV […] to NSSB genes and the HCV 3′UTR. Another replicon cell line (“Huh-luc/neo-ET”) described by Vrolijk et. al. (Vrolijk et. al. (2003) Journal of Virological Methods 110:201-209, expressly incorporated by reference in its entirety) stably expresses HCV replicon RNA which consists of (i) the HCV 5′UTR fused to the first 12 amino acids of the capsid protein, (ii) the firefly luciferase reporter gene, (iii) the ubiquitin gene, (iv) the neomycin phosphotransferase gene (neo), (v) the IRES from encephalomyocarditis virus (EMCV), and (vi) HCV NS3 to NS5B genes that harbor cell culture adaptive mutations (E1202G, T1280I, K1846T) and the HCV 3′UTR.
These cell lines were maintained at 37° C., 5% CO2, 100% relative humidity in DMEM (Cat#11965-084, Invitrogen), with 10% fetal calf serum (“FCS”, Invitrogen), 1% non-essential amino acids (Invitrogen), 1% of Glutamax (Invitrogen), 1% of 100× penicillin/streptomycin (Cat#15140-122, Invitrogen) and Geneticin (Cat#10131-027, Invitrogen) at 0.75 mg/ml or 0.5 mg/ml for 11-7 and Huh-luc/neo-ET cells, respectively.
EC50 values of single agent compounds and combinations were determined by HCV RNA detection using quantitative RT-PCR, according to the manufacturer's instructions, with a TAQMAN® One-Step RT-PCR Master Mix Reagents Kit (Cat#AB 4309169, Applied Biosystems) on an ABI Model 7500 thermocycler. The TaqMan primers used for detecting and quantifying HCV RNA were obtained from Integrated DNA Technologies. HCV RNA was normalized to GAPDH RNA levels in drug-treated cells, which is detected and quantified using the Human GAPDH Endogenous Control Mix (Applied Biosystems, AB 4310884E). Total cellular RNA is purified from 96-well plates using the RNAqueous 96 kit (Ambion, Cat# AM1812). Chemical agent cytotoxicity is evaluated using an MTS assay according to the manufacturer's directions (Promega).
Since clinical drug resistance often develops in viral infections following single agent therapies, there is a need to assess the additive, antagonistic, or synergistic properties of combination therapies. We used the HCV replicon system to assess the potential use of the compound of the present invention or in combination therapies with Interferon alpha, cyclosporine analogs and inhibitors targeting other HCV proteins. The acute effects of a single or combinations of drugs are studied in the “Huh-luc/neo-ET” replicon with each chemical agent titrated in an X or Y direction in a 6 point two-fold dilution curve centered around the EC50 of each drug. Briefly, replicon cells are seeded at 7,000 cells per well in 90 ul DMEM (without phenol red, Invitrogen Cat.#31053-036) per well with 10% FCS, 1% non-essential amino acids, 1% of Glutamax and 1% of 100× penicillin/streptomycin and incubated overnight at 37° C., 5% CO2, 100% relative humidity. […]

[1] = Table 11, qRT-PCR or luciferase assay, read-out: Genotype-1b replicon EC50 Range

| Compound | pEC50 [1] | also measured |
| --- | --- | --- |
| COC(=O)N[C@H](C(=O)N1CCC[C@H]1c1ncc(-c2ccc(C#Cc3ccc4nc([C@@H]5CC[C@H](C)N5C(=O)[C@@H](NC(=O)OC)C(C)C)[nH]c4c3)cc2)[nH]1)C(C)C [Example 542] | > 9.00 |  |
| COC(=O)N[C@H](C(=O)N1CCC[C@H]1c1nc(-c2ccc(C#Cc3cc(F)c4[nH]c([C@@H]5CCCN5C(=O)[C@@H](NC(=O)OC)C(C)C)nc4c3)cc2)c[nH]1)C(C)C [Example 483] | > 9.00 |  |
| COC(=O)N[C@H](C(=O)N1CCC[C@H]1c1ncc(-c2ccc([C@H]3C[C@@H]3c3ccc4nc([C@@H]5CCCN5C(=O)[C@@H](NC(=O)OC)C(C)C)[nH]c4c3)cc2)[nH]1)C(C)C [Example 497-a] | > 9.00 |  |
| COC(=O)N[C@H](C(=O)N1CC(C)(C)C[C@H]1c1ncc(-c2ccc(C#Cc3ccc4nc([C@@H]5C[C@@]6(CCCO6)CN5C(=O)[C@@H](NC(=O)OC)C(C)C)[nH]c4c3)cc2)[nH]1)C(C)C [Example 560] |  | pEC50 (Table 12, range class, read-out: 1b EC50 Range): > 9.00 |
| COC(=O)N[C@H](C(=O)N1CCC[C@H]1c1ncc(-c2ccc(C#Cc3ccc4nc([C@@H]5C[C@H](Oc6ccccc6)CN5C(=O)[C@@H](NC(=O)OC)C(C)C)[nH]c4c3)cc2)[nH]1)C(C)C [Example 538] | > 9.00 |  |
| COC(=O)N[C@H](C(=O)N1C[C@H](O)C[C@H]1c1ncc(-c2ccc(C#Cc3ccc4nc([C@@H]5CCCN5C(=O)[C@@H](NC(=O)OC)C(C)C)[nH]c4c3)cc2)[nH]1)C(C)C [Example 535] | > 9.00 |  |
| COC(=O)N[C@@H](C(=O)N1CCC[C@H]1c1nc(-c2ccc(CCc3ccc4[nH]c([C@@H]5CCCN5C(=O)[C@H](NC(=O)OC)c5ccccc5)nc4c3)cc2)n[nH]1)c1ccccc1 [Example 443] | > 9.00 |  |
| COC(=O)N[C@H](C(=O)N1CCC[C@H]1c1ncc(-c2ccc(C#Cc3ccc4nc([C@@H]5CCCN5C(=O)[C@@H](NC(=O)OC)C5CC5)[nH]c4c3)cc2)[nH]1)C(C)C [Example 528] | > 9.00 |  |
| COC(=O)N[C@H](C(=O)N1CCC[C@H]1c1nc(-c2ccc3cc(-c4ccc5[nH]c([C@@H]6CCCN6C(=O)[C@@H](NC(=O)OC)C(C)C)nc5c4)ccc3c2)c[nH]1)C(C)C [Example 459] | > 9.00 |  |
| COC(=O)N[C@H](C(=O)N1CCC[C@H]1c1nc(CCc2ccc3cc(-c4ccc5[nH]c([C@@H]6CCCN6C(=O)[C@@H](NC(=O)OC)C(C)C)nc5c4)ccc3c2)c[nH]1)C(C)C [Example 472] | > 9.00 |  |
| C=C(c1ccc(-c2c[nH]c([C@@H]3CCCN3C(=O)[C@@H](NC(=O)OC)C(C)C)n2)cc1)c1ccc2nc([C@@H]3CCCN3C(=O)[C@@H](NC(=O)OC)C(C)C)[nH]c2c1 [Example 493] | > 9.00 |  |
| COC(=O)N[C@@H](C(=O)N1CCC[C@H]1c1nc2ccc(C#Cc3ccc(-c4cnc([C@@H]5CCCN5C(=O)[C@H](NC(=O)OC)c5ccccc5)o4)cc3)cc2[nH]1)c1ccccc1 [Example 533] | > 9.00 |  |
| COC(=O)N[C@H](C(=O)N1CCC[C@H]1c1ncc(-c2ccc(C#Cc3ccc4nc([C@]5(C)CCCN5C(=O)[C@@H](NC(=O)OC)C(C)C)[nH]c4c3)cc2)[nH]1)C(C)C [Example 539] | > 9.00 |  |
| COC(=O)N[C@@H](C(=O)N1CCC[C@H]1c1ncc(-c2ccc(CCc3ccc4nc([C@@H]5CCCN5C(=O)[C@H](NC(=O)OC)c5ccccc5)[nH]c4c3)cc2)[nH]1)c1ccccc1 [Example 2-2] | > 9.00 |  |
| COC(=O)N[C@H](C(=O)N1CCC[C@H]1c1nc(-c2ccc(C#Cc3ccc4[nH]c([C@@H]5CCCN5C(=O)[C@@H](c5ccccc5)C(C)C)nc4c3)cc2)c[nH]1)C(C)C [Example 507] | > 9.00 |  |
| COC(=O)N[C@H](C(=O)N1CCC[C@H]1c1ncc(-c2ccc(C#Cc3ccc4nc([C@@H]5CCCN5C(=O)[C@@H](NC(=O)OC)C(C)(C)O)[nH]c4c3)cc2)[nH]1)C(C)C [Example 530] | > 9.00 |  |

| Compound | pEC50 [1] | also measured |
| --- | --- | --- |
| COC(=O)N[C@H](C(=O)N1CCC[C@H]1c1nc(-c2ccc3cc(C#Cc4ccc5[nH]c([C@@H]6CCCN6C(=O)[C@@H](NC(=O)OC)C(C)C)nc5c4)ccc3c2)c[nH]1)C(C)C [Example 475] | > 9.00 |  |
| COC(=O)N[C@H](C(=O)N1CCC[C@H]1c1nc(-c2ccc(/C=C/c3ccc4[nH]c([C@@H]5CCCN5C(=O)[C@@H](NC(=O)OC)C(C)C)nc4c3)s2)c[nH]1)C(C)C [Example 453] | > 9.00 |  |
| COC(=O)N[C@@H](C(=O)N1CCC[C@H]1c1cc(-c2ccc(CCc3ccc4[nH]c([C@@H]5CCCN5C(=O)[C@H](NC(=O)OC)c5ccccc5)nc4c3)cc2)n[nH]1)c1ccccc1 [Example 446] | > 9.00 |  |
| COC(=O)N[C@H](C(=O)N1CCC[C@H]1c1ncc(-c2ccc(C#Cc3ccc4nc([C@@H]5C[C@@]6(CCCCO6)CN5C(=O)[C@@H](NC(=O)OC)C(C)C)[nH]c4c3)cc2)[nH]1)C(C)C [Example 632] |  | pEC50 (Table 12, numeric values, read-out: 1b EC50): 10.89 |
| COC(=O)N[C@H](C(=O)N1CCC[C@H]1c1nc(-c2ccc(CCc3ccc4nc([C@@H]5CCCN5C(=O)[C@@H](NC(=O)OC)C(C)C)[nH]c4c3)s2)c[nH]1)C(C)C [Example 454] | > 9.00 |  |
| COC(=O)N[C@H](C(=O)N1CCC[C@H]1c1nc(C#Cc2ccc(-c3ccc4[nH]c([C@@H]5CCCN5C(=O)[C@@H](NC(=O)OC)C(C)C)nc4c3)cc2)c[nH]1)C(C)C [Example 468] | > 9.00 |  |
| COC(=O)N[C@H](C(=O)N1CCC[C@H]1c1nc(CCc2ccc(-c3ccc4[nH]c([C@@H]5CCCN5C(=O)[C@@H](NC(=O)OC)C(C)C)nc4c3)cc2)c[nH]1)C(C)C [Example 469] | > 9.00 |  |
| COC(=O)N[C@@H](C(=O)N1CCC[C@H]1c1nc(-c2ccc(C#Cc3ccc4[nH]c([C@@H]5CCCN5C(=O)[C@H](NC(=O)OC)c5ccccc5)nc4c3)cc2)n[nH]1)c1ccccc1 [Example 442] | > 9.00 |  |
| COC(=O)N[C@H](C(=O)N1CCC[C@H]1c1nc(-c2ccc(C#Cc3ccc4[nH]c([C@@H]5CC(=O)CN5C(=O)[C@@H](NC(=O)OC)C(C)C)nc4c3)cc2)c[nH]1)C(C)C [Example 486] | > 9.00 |  |
| COC(=O)N[C@H](C(=O)N1CCC[C@H]1c1nc(C#Cc2ccc3cc(-c4ccc5[nH]c([C@@H]6CCCN6C(=O)[C@@H](NC(=O)OC)C(C)C)nc5c4)ccc3c2)c[nH]1)C(C)C [Example 471] | > 9.00 |  |
| COC(=O)N[C@H](C(=O)N1CCC[C@H]1c1nc(-c2ccc(C#Cc3ccc4[nH]c([C@@H]5C[C@@H](O)CN5C(=O)[C@@H](NC(=O)OC)C(C)C)nc4c3)cc2)c[nH]1)C(C)C [Example 517] | > 9.00 |  |
| COC(=O)N[C@H](C(=O)N1CCC[C@H]1c1nc2cc(C#Cc3ccc(-c4c[nH]c([C@@H]5CCCN5C(=O)[C@H](NC(=O)OC)C(C)C)n4)cc3)ccc2[nH]1)C(C)C [Example 513] | > 9.00 |  |
| COC(=O)N[C@H](C(=O)N1CCC[C@H]1c1nc(-c2ccc(C#Cc3ccc4[nH]c([C@@H]5CCCN5C(=O)OC(C)(C)C)nc4c3)cc2)c[nH]1)C(C)C [Example 500] | 8.00 to 9.00 |  |
| COC(=O)N[C@H](C(=O)N1CCC[C@H]1c1ncc(-c2ccc(C#Cc3ccc4nc([C@@H]5C[C@H]6C[C@H]6N5C(=O)[C@@H](NC(=O)OC)C(C)C)[nH]c4c3)cc2)[nH]1)C(C)C [Example 541] | > 9.00 |  |
| COC(=O)N[C@H](C(=O)N1CCC[C@H]1c1ncc(-c2ccc(C#Cc3ccc4nc([C@]5(Cc6ccccc6)CCCN5C(=O)[C@@H](NC(=O)OC)C(C)C)[nH]c4c3)cc2)[nH]1)C(C)C [Example 536] | > 9.00 |  |
| COC(=O)N[C@H](C(=O)N1CCC[C@H]1c1ncc(-c2ccc(C#Cc3ccc4nc([C@@H]5C[C@@H](F)CN5C(=O)[C@@H](NC(=O)OC)C(C)C)[nH]c4c3)cc2)[nH]1)C(C)C [Example 540] | > 9.00 |  |
